One series concerns hippocampal tissue slice. The series can be described thus: Stimulation-evoked after discharge and intrinsic optical signals in hippocampal slices (Example 10). The format is cell-based, rat. On the procedure:
Sprague-Dawley rats (male and female; 25 to 35 days old) were prepared as described in Aghajanian, A. K. and Rasmussen, K., Synapse 31:331, 1989; and Buckmaster, P. S., Strowbridge, B. W., Schwartzdroin, P. A., J. Neurophysiol. 70:1281, 1993. In most hippocampal slice experiments, simultaneous extracellular field electrode recordings were obtained from CA1 and CA3 areas. For stimulation-evoked after discharge (13 slices, 8 animals), the concentration of Mg^2+ in the bathing medium was reduced to 0.9 mM. A bipolar tungsten stimulating electrode was placed on the Schaffer collaterals to evoke synaptically driven field responses in CA1; stimuli consisted to 100 to 300-μs-duration pulses at an intensity of four times population-spike threshold. After discharges were evoked by a 2-[…] of such stimuli delivered at 60 Hz. […] In all treatments, perfusion with furosemide-containing medium was begun after a consistent level of bursting had been established.
For imaging of intrinsic optical signals, the tissue was illuminated with a beam of white light (tungsten filament light and lens system; Dedotec USA, Lodi, N.J.) directed through the microscope condenser. The light was controlled and regulated (power supply: Lambda Electronics, Melville, N.Y.) to minimize fluctuations and filtered (695 nm long-pass) so that the slice was transilluminated with long wavelengths (red). Image frames were acquired with a charge-coupled device camera (Dage-MTI) at 30 Hz and were digitized at 8 bits with a spatial resolution of 512 by 480 pixels by means of an Imaging Technology Series 151 imaging system; gains and offsets of the camera-control site and the analog-to-digital board were adjusted to optimize the sensitivity of the system. Imaging hardware was controlled by a 486-PC-compatible computer running software written by D. Hochman and developed with commercially available software tools (Microsoft's C/C++ Compiler and Imaging Technology's ITEX library). To increase signal-to-noise ratio, an averaged image was composed from 16 individual image-frames, integrated over 0.5 s and averaged together. An experimental series typically involved the continuous acquisition of a series of averaged images over a several minute time period; at least 10 of these averaged images were acquired as control images before stimulation. Pseudocolored images were calculated by subtracting the first control image from subsequently acquired images and assigned a color lookup table to the pixel values. For these images, usually a linear low-pass filter was used to remove high-frequency noise and a linear-histogram stretch was used to map the pixel values over the dynamic range of the system. All operations on these images were linear so that quantitative information was preserved.

Another series concerns hippocampal slice. The series can be described thus: Spontaneous interictal-like bursts in hippocampal slices with modified bathing medium. The series is classed as cell-based, rat.
Series [1] has as its system low grade human CNS tumor. Kind of series: Optical imaging of dye perfusion in a low grade human CNS tumor (Example 3). The series is classed as in vivo. On the procedure:
This example illustrates the use of a contrast enhancing agent, indocyanine green, to identify and spatially localize a low grade human CNS tumor. An MRI scan was conducted before the operation. Additionally, the patient was investigated for tumor tissue using the apparatus described according to the invention and specifically described above.
The area of interest was evenly illuminated by a fiber optic light source with the radiation passing through a beam splitter, controlled by a D.C. regulated power supply (Lambda, Inc.) and passed through a 695 nm long pass filter. Images were acquired with a CCD camera (COHU 6500) fitted to the operating microscope with a specially modified cineadaptor. The cortex was stabilized with a glass footplate. Images were acquired at 30 Hz and digitized at 8 bits (512×480 pixels, using an Imaging Technology, Inc. Series 151 system, Woburn, Mass.). Geometrical transformations were applied to images to compensate for small amounts of patient motion (Wohlberg, Digital Imaging Warping, IEEE Computer Society: Los Alamitos, Calif., 1988). […] Raw data (i.e., no digital enhancement) were used for determining the average optical change in specified regions (average size site was 30×30 pixels or 150-250 um^2). For pseudocolor images, a linear low pass filter removed high frequency noise and linear histogram transformations were applied. Noise was defined as the standard deviation of fluctuations in sequentially acquired control images as 0.003-0.009.
An averaged control image was obtained of the particular cortical surface area of interest. Indocyanine green dye was administered into a peripheral intravenous catheter as a bolus at Time 0. Lettered labels were placed upon the brain by the surgeon overlay the tumor as identified intraoperatively by ultrasound. However, tumors of this type and grade are notoriously difficult to distinguish from normal tissue once the surgical removal of the tumor has begun. Difference images were taken approximately 15 seconds after intravenous injection of dye (indocyanine green at 1 mg/kg), and 30 seconds after dye administration. […] Therefore, it is possible to image even low grade tumors with this apparatus. Furthermore, it is possible to distinguish, intraoperatively, low grade tumor tissue from surrounding normal tissue.

The test system of series [2] is malignant CNS tumor (glioblastoma; astrocytoma, Grade IV). The series can be described thus: Optical imaging of dye perfusion in a highly malignant CNS tumor (Example 4). The series is classed as in vivo, human. The text has this:
This example illustrates the image of a highly malignant CNS tumor (glioblastoma). A patient was imaged in a neurosurgical procedure as described in Example 1. A series of images were taken from the cortex of a patient with a malignant CNS tumor (glioblastoma; astrocytoma, Grade IV). […] A difference image was obtained at 15 seconds after intravenous injection of indocyanine green, showing the dynamics of dye perfusion in the first seconds in malignant tissue are […] to those in the first few seconds of benign tumor tissue. […] Therefore, it is possible with this device to identify malignant tumor tissue, distinguish intraoperatively between normal and malignant tumor tissue, and to distinguish between the various grades of tumor (e.g., normal vs. benign vs. malignant). Thus, it is possible to not only image the location of tumor tissue, but also to grade the tumor with more malignant tumors retaining dye for a longer period of time than a lower grade tumor.

The subject of series [3] is glioma. The following applies: rat, in vivo. The text has this: This example illustrates a series of experiments using a rat glioma model and optical detection techniques through an intact skull to investigate whether the inventive method and inventive device could function in to image tumor tissue through an intact skull and through intact skin prior to or after surgery. Far red wavelengths of emr are known to penetrate through bone and skin. Imaging of tumor tissue was attempted through the intact skull of the rat. The extent of tumor identified was not as accurate as with the cortex exposed, however, the area lying beneath the skull with tumor tissue was easily identified, localized and continued to concentrate dye after several minutes.
An image was taken for a grey-scale image of the cranial surface of a rat. The sagital suture runs down the center of the image. Tumor cells had been injected into the left side some days earlier so that this animal had developed a glioma on the left hemisphere of its brain. The right hemisphere was normal. A site 1 laid over the suspect region of brain tumor, and a site 2 laid over normal tissue. A difference image was acquired at 1 second after indocyanine green dye had been intravenously injected into the animal. The region containing tumor tissue becomes immediately visible through the intact cranium. […] A concentration of dye in the center of this difference image was observed and depicted dye circulating in the sagital sinus.
The optical changes were determined by the average optical change in a site placed directly over the tumor and over the normal hemisphere. The increase in absorption is a function of the concentration of dye in the tissue at a particular time. The graph labeled “extracranial tumor” is a plot of the dynamics of the absorption changes from the tumor area. The graph labeled “extracranial: normal” is a plot of the dynamics of the absorption change from the non-tumor area.

The test system of series [4] is glioma. More on the design: species or system rat. The following applies: in vivo. The text has this:
This example illustrates a series of experiments using a rat glioma model intraoperatively to investigate whether the inventive method and inventive device could function in an operating room setting to provide real time information to the surgeon regarding resection of all tumor tissue. The rat glioma model is a standard predictive model and was used to delineate dye uptake, clearance and overall parameters of optical imaging that result in the best images. The advantages of this model are the ability to consistently get reproducible tumors for imaging studies and to be able to rescect tumor under an operating microscope and still find residual tumor with the inventive optical imaging. A disadvantage of this model is the more sarcoma-like appearance of the tumor and a lesser degree of vascularity compared to human gliomas.
Briefly, the rat glioma model uses an ethylnitrosourea-induced F-344 rat tumor line developed from a clonal population of a spinal malignant astrocytoma. […] The glioma cells were maintained in Weymouth's medium supplemented with 10% fetal calf serum. Viable cells (5×10^4) were trypsinized from a monolayer culture and implanted stereotaxically into the right cerebral hemisphere of 30 syngeneic female rats, each weighing 140-160 g. The stereotaxic coordinates for right frontal lobe implantation were 4.5 mm anterior to the frontal zero plane, 3 mm right from the midline and 6 mm deep. The rats were anesthetized for implantation. The heads were shaved and scalps opened, and a 1 mm burr hole made at the appropriate coordinates. The cells were injected through a 27 gauge needle, the needle left in place for 30 sec post injection and the hole was covered with bone wax: The scalp was sutured and the animals observed for 3-4 hrs until they returned to normal activity and feeding. The animals were used !I 0-14 days after tumor implantation. In this model, animals begin to show clinical symptoms from the tumor by 16-19 days, such as decreased activity and feeding, hemiparesis and eventually succumb between 19-27 days from mass effects due to tumor expansion.
Fourteen animals underwent complete study, including imaging before and after resection of the tumor. For study, the animals were anesthetized with 2% isoflurane, and the femoral vein canulated for administration of the dye. Anesthesia was maintained with a chloralsoe (50 mg/kg administered ip) and urethane (160 mg/kg administered ip). The animals were placed in a stereotaxic holder. Imaging studies were then carried out before or after removal of the cranium. The tumor typically occupied the anterior one half to two thirds of the right hemisphere exposure. […]

[5] abbreviates: 2.5 mM in medium, 20 minutes of perfusion, stimulation at 60 Hz.

Five compounds from patent US20030236458A1, “Spectroscopic systems and methods for detecting tissue properties” (BIOPHYSICA LLC, priority 1999, published 2003) can be followed below.

The structures appear in SMILES notation. A value given as a limit tells only on which side of the number the result lay.

Turning to `NS(=O)(=O)c1cc(C(=O)O)c(NCc2ccco2)cc1Cl` [furosemide], the “field response to the test pulse” value with hippocampal tissue slice (2.5 mM in medium, 20 minutes of perfusion) was “hyperexcitable field response (multiple population spikes)”. Besides, in the series with hippocampal tissue slice (setting [5]), the “electrical after discharge (epileptiform) activity” value is on record as “blocks” and the “stimulation-evoked optical changes (intrinsic optical signal)” value is “blocks”. The response after washout result in the series on hippocampal tissue slice (45 minutes of perfusion with normal bathing medium) was “restoration of the initial response pattern”.
Regarding `[K+]` [K^+], in the series on hippocampal slice (10 mM in bathing medium, 6 slices, 4 animals), the “spontaneous interictal-like bursts, average” value was determined as 81 bursts/min.
As for `CN1CCc2cc3c(cc2[C@H]1[C@@H]1OC(=O)c2c1ccc1c2OCO1)OCO3` [bicuculine], the “spontaneous interictal-like bursts, average” value with hippocampal slice (50 to 100 in bathing medium, 4 slices, 3 animals) stood at 14 bursts/min.
`CC1(C)C(/C=C/C=C/C=C/C=C2\N(CCCCS(=O)(=O)O)c3ccc4ccccc4c3C2(C)C)=[N+](CCCCS(=O)(=O)[O-])c2ccc3ccccc3c21` [indocyanine green]: the “tissue staining in difference images, tumor tissue” value in series [1] (1 mg/kg intravenous bolus, approximately 15 and 30 seconds after dye administration) is “first tissue staining”. Besides, the “time at which all tissue (both normal and abnormal) showed staining” value in series [1] (1 mg/kg intravenous, low grade tumor) came to 45 s. Moreover, the “clearance of dye from the area of interest” value in series [1] (five minutes after dye administration, low grade tumor) is “complete clearance”. In addition, the “entry into low grade tumor tissue compared to normal brain tissue” value in series [1] (intravenous) is recorded as “faster than normal brain tissue”. Further, in series [2] (30 seconds after intravenous injection), the “intensity in malignant tissue compared to normal tissue” value is recorded as “even more intense”. In addition, in series [2] (1 minute and 10 minutes after dye injection), the “retention of dye in malignant tumor tissue compared to benign tumor tissue” value was “retained significantly longer”. In the series on glioma [3] (60 seconds), the “plateau phase optical change, normal brain” value was determined as 3.1±0.7% and the “plateau phase optical change, tumor tissue” value is 40.5±9.6%. Also, in the series on glioma [3] (iv), the “peak optical change, normal brain imaged through the cranium” value is listed as 7.8±2.3% and the “peak optical change, tumor imaged through the cranium” value was 13.1±3.9%. In the series with glioma [4] (female, F-344, rat), the “duration of prolonged increase in the optical signal in the tumor” value is given as above 2 min and the “time after dye injection at which optical signals began to change” value is 2 to 3 s. Moreover, in the series with glioma [4] (rat), the “dye in tumor tissue versus normal tissue” value is “still collecting in tumor tissue”. In the series with glioma [4] (rat, iv), the “dye in the cerebrospinal fluid after administration” value is listed as “No dye was found”.
For `Nc1ccncc1` [4-AP], the “spontaneous interictal-like bursts, average” value in the series on hippocampal slice (200 to 300 μM in bathing medium, 4 slices, 2 animals) was found to be 33 bursts/min.
